Experimental findings from patent publication US20240279241A1, “PYRIDO[4,3-D]PYRIMIDINE COMPOUNDS CAPABLE OF INHIBITING KRAS MUTANT PROTEINS” (Redx Pharma PLC, priority 2021, published 2024) are described below.

Holding throughout (assay type): biochemical
In one assay the target is T1, KRAS WT (Homo sapiens, UniProt P01116).
T1 construct: Recombinant human RAS protein (2 nM); aa1-188 KRAS WT
Kind of assay: HTRF nucleotide exchange assay (NEA), KRAS WT. How it is done: (§1) The capacity of compounds to bind KRAS G12D, other KRAS mutants and wildtype RAS isoforms was quantified using a HTRF nucleotide exchange assay. Recombinant human RAS protein (2 nM; aa1-188 KRAS WT, HRAS WT, NRAS WT, or KRAS containing the containing the G12D, G13D or Q61H amino acid substitutions, or 4 nM KRAS; aa1-188 containing the G12V, G12C, G12A or G12S amino acid substitution, an N-terminal 6×His-tag and leader sequence), and 2 nM Europium-labeled anti-6×His antibody were mixed in assay buffer (10 mM HEPES pH7.3, 150 mM NaCl, 5 mM MgCl2, 0.05% BSA, 0.0025% NP-40 and 100 mM KF) with various concentrations of compound in a 384-well plate and a volume of 5 uL. After a 60-minute incubation at room temperature, 5 ul of 200 nM EDA-GTP-DY647P1 (diluted in assay buffer) was added to the plate. Following 30-minute incubation at room temperature, time-resolved fluorescence was measured on a PerkinElmer Envision plate reader. DMSO (0.3%) and unlabeled […] (1 μM) or equivalent tool compound were used to generate the Max and Min assay signals, respectively. Data was analysed using a four-parameter logistic model to calculate IC50 values, with at least two independent replicates were performed for each compound.

A further assay addresses T2, KRAS G12D (Homo sapiens, UniProt P01116, G12D).
T2 construct: Recombinant human RAS protein (2 nM)
In words: HTRF nucleotide exchange assay (NEA), KRAS G12D. The settings on record: recombinant human KRAS G12D aa1-188, 2 nM; lowest class = % inhibition at 10 μM. How it is done: as §1
Background: Time-resolved FRET reads energy transfer from a long-lived donor to a nearby acceptor.

A further assay concerns the target T3, KRAS G12C (Homo sapiens, UniProt P01116, G12C).
T3 construct: 4 nM KRAS; aa1-188 containing the G12V, G12C, G12A or G12S amino acid substitution
In words: HTRF nucleotide exchange assay (NEA), KRAS G12C. How it is done: as §1

The next assay addresses T4, KRAS G12V (Homo sapiens, UniProt P01116, G12V).
T4 construct: 4 nM KRAS; aa1-188 containing the G12V, G12C, G12A or G12S amino acid substitution
In words: HTRF nucleotide exchange assay (NEA), KRAS G12V. How it is done:
as §1

Each structure is given as a SMILES string. Bounds are passed on as bounds.

T3 sequence (P01116 1-188 isoform P01116-2 G12C): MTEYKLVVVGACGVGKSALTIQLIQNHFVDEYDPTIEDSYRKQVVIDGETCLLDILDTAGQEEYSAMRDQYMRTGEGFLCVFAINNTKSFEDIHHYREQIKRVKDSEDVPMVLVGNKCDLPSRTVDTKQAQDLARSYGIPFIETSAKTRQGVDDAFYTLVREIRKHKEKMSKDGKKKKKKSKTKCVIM
T2 sequence (P01116 1-188 isoform P01116-2 G12D): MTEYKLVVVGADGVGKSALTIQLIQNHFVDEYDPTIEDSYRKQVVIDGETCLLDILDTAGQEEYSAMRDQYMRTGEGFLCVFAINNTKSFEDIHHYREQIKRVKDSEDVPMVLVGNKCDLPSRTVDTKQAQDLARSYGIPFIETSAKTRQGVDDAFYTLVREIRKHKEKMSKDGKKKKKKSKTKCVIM
T4 sequence (P01116 1-188 isoform P01116-2 G12V): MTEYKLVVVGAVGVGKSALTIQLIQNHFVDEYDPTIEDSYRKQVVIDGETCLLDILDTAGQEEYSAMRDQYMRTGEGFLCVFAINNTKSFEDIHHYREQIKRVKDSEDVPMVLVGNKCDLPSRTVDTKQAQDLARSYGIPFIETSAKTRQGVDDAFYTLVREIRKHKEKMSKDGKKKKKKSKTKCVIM
T1 sequence (P01116 1-188 isoform P01116-2): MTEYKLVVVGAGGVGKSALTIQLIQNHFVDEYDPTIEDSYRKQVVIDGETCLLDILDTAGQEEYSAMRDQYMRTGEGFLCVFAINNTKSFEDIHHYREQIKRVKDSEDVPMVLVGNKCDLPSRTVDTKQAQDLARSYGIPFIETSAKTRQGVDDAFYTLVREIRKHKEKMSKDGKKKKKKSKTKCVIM

The term IC50 denotes the point on the concentration scale where inhibition reaches its midpoint. Turning to `COC(=O)CCNc1nc(OCC23CCCN2CCC3)nc2c(F)c(-c3cc(O)cc4ccccc34)ncc12` [Example 25], the IC50 against KRAS WT, at KRAS G12D and at KRAS G12C was 100 to 10000 nM throughout.

In the case of `Oc1cc(-c2ncc3c(N4CC5CCC(C4)O5)nc(OCC45CCCN4CCC5)nc3c2F)c2ccccc2c1` [Example 7, 4-[8-fluoro-2-(1,2,3,5,6,7-hexahydropyrrolizin-8-ylmethoxy)-4-(8-oxa-3-azabicyclo[3.2.1]octan-3-yl)pyrido[4,3-d]pyrimidin-7-yl]naphthalen-2-ol], the IC50 against KRAS WT, at KRAS G12D, on KRAS G12C and against KRAS G12V was 100 to 10000 nM in each case.

As for `O=C1NCc2ccc(Nc3nc(OCC45CCCN4CCC5)nc4c(F)c(-c5cc(O)cc6ccccc56)ncc34)cc21` [Example 82, 6-[[8-fluoro-2-(1,2,3,5,6,7-hexahydropyrrolizin-8-ylmethoxy)-7-(3-hydroxy-1-naphthyl)pyrido[4,3-d]pyrimidin-4-yl]amino]isoindolin-1-one], the IC50 was in the range of 100 to 10000 nM against KRAS WT, 100 to 10000 nM at KRAS G12D, 100 to 10000 nM against KRAS G12C and 10 to 100 nM at KRAS G12V.

As for `O=C1CC2(CCN(c3nc(OCC45CCCN4CCC5)nc4c(F)c(-c5cc(O)cc6ccccc56)ncc34)CC2)CN1` [Example 81, 8-[8-fluoro-2-(1,2,3,5,6,7-hexahydropyrrolizin-8-ylmethoxy)-7-(3-hydroxy-1-naphthyl)pyrido[4,3-d]pyrimidin-4-yl]-2,8-diazaspiro[4.5]decan-3-one], the IC50 lay within 100 to 10000 nM against KRAS WT, 100 to 10000 nM on KRAS G12D, 100 to 10000 nM on KRAS G12C and 10 to 100 nM on KRAS G12V.

In the case of `Oc1cc(-c2ncc3c(N4CCC5COCC5C4)nc(OCC45CCCN4CCC5)nc3c2F)c2ccccc2c1` (stereo not drawn) [Example 51, 4-[4-(3,3a,4,6,7,7a-hexahydro-1H-furo[3,4-c]pyridin-5-yl)-8-fluoro-2-(1,2,3,5,6,7-hexahydropyrrolizin-8-ylmethoxy)pyrido [4,3-d]pyrimidin-7-yl]naphthalen-2-ol], the IC50 against KRAS WT, at KRAS G12D, against KRAS G12C and against KRAS G12V was 100 to 10000 nM throughout.

Regarding `COCCCNc1nc(OCC23CCCN2CCC3)nc2c(F)c(-c3cc(O)cc4ccccc34)ncc12` [Example 11, 4-[8-fluoro-2-(1,2,3,5,6,7-hexahydropyrrolizin-8-ylmethoxy)-4-(3-methoxypropylamino)pyrido[4,3-d]pyrimidin-7-yl]naphthalen-2-ol], the IC50 against KRAS WT lay within 100 to 10000 nM; at KRAS G12D it was 10 to 100 nM; against KRAS G12C, 100 to 10000 nM; on KRAS G12V, 100 to 10000 nM.

Consider `O=C1CC2(CCN(c3nc(OCC45CCCN4CCC5)nc4c(F)c(-c5cc(O)cc6ccccc56)ncc34)C2)CN1` (stereo not drawn) [Example 76, 2-[8-fluoro-2-(1,2,3,5,6,7-hexahydropyrrolizin-8-ylmethoxy)-7-(3-hydroxy-1-naphthyl)pyrido[4,3-d]pyrimidin-4-yl]-2,7-diazaspiro[4.4] nonan-8-one], for which the IC50 was 100 to 10000 nM on KRAS WT, above 10000 nM at KRAS G12D, 100 to 10000 nM on KRAS G12C and 100 to 10000 nM against KRAS G12V.

As for `OCC1CCN(c2nc(OCC34CCCN3CCC4)nc3c(F)c(-c4cc(O)cc5ccccc45)ncc23)CC1` [Example 79, 4-[8-fluoro-2-(1,2,3,5,6,7-hexahydropyrrolizin-8-ylmethoxy)-4-[4-(hydroxymethyl)-1-piperidyl]pyrido[4,3-d]pyrimidin-7-yl]naphthalen-2-ol], the IC50 against KRAS WT, on KRAS G12D, on KRAS G12C and against KRAS G12V was 10 to 100 nM in each case.

With `CSCCCNc1nc(OCC23CCCN2CCC3)nc2c(F)c(-c3cc(O)cc4ccccc34)ncc12` [Example 26, 4-[8-fluoro-2-(1,2,3,5,6,7-hexahydropyrrolizin-8-ylmethoxy)-4-(3-methylsulfanylpropylamino)pyrido[4,3-d]pyrimidin-7-yl]naphthalen-2-ol], the IC50 at KRAS WT, on KRAS G12D and at KRAS G12C was 100 to 10000 nM each time.

`OCC1CCN(c2nc(OCC34CCCN3CCC4)nc3c(F)c(-c4cc(O)cc5ccccc45)ncc23)C1` (stereo not drawn) [Example 73, 4-[8-fluoro-2-(1,2,3,5,6,7-hexahydropyrrolizin-8-ylmethoxy)-4-[3-(hydroxymethyl)pyrrolidin-1-yl]pyrido[4,3-d]pyrimidin-7-yl]naphthalen-2-ol]: the IC50 on KRAS WT, on KRAS G12D, at KRAS G12C and at KRAS G12V was 100 to 10000 nM each time.

As to `Nc1cc2ccccc2c(-c2ncc3c(N4CCCOCC4)nc(OCC45CCCN4CCC5)nc3c2F)n1` [Example 91, 1-[8-fluoro-2-(1,2,3,5,6,7-hexahydropyrrolizin-8-ylmethoxy)-4-(1,4-oxazepan-4-yl)pyrido[4,3-d]pyrimidin-7-yl]isoquinolin-3-amine], the IC50 against KRAS WT, on KRAS G12D, at KRAS G12C and on KRAS G12V was 100 to 10000 nM in each case.

As for `O=C1NCCC12CCN(c1nc(OCC34CCCN3CCC4)nc3c(F)c(-c4cc(O)cc5ccccc45)ncc13)CC2` [Example 77, 8-[8-fluoro-2-(1,2,3,5,6,7-hexahydropyrrolizin-8-ylmethoxy)-7-(3-hydroxy-1-naphthyl)pyrido[4,3-d]pyrimidin-4-yl]-2,8-diazaspiro[4.5]decan-1-one], the IC50 against KRAS WT, on KRAS G12D, at KRAS G12C and against KRAS G12V was 100 to 10000 nM throughout.

As for `Oc1cc(-c2ncc3c(N4CCOCC4)nc(OCC45CCCN4CCC5)nc3c2F)c2ccccc2c1` [Example 5, 4-[8-fluoro-2-(1,2,3,5,6,7-hexahydropyrrolizin-8-ylmethoxy)-4-(morpholin-4-yl)pyrido[4,3-d]pyrimidin-7-yl]naphthalen-2-ol], the IC50 against KRAS WT, on KRAS G12D, at KRAS G12C and on KRAS G12V was 100 to 10000 nM in each case.

Take `COCCCN(C)c1nc(OCC23CCCN2CCC3)nc2c(F)c(-c3cc(O)cc4ccccc34)ncc12` [Example 28, 4-[8-fluoro-2-(1,2,3,5,6,7-hexahydropyrrolizin-8-ylmethoxy)-4-[3-methoxypropyl(methyl)amino]pyrido[4,3-d]pyrimidin-7-yl]naphthalen-2-ol]: the IC50 against KRAS WT, on KRAS G12D and on KRAS G12C was 100 to 10000 nM in each case.

For `Oc1cc(-c2ncc3c(N4CCC5(CCNC5)CC4)nc(OCC45CCCN4CCC5)nc3c2F)c2ccccc2c1` [Example 2, 4-[4-(2,8-diazaspiro[4.5]decan-8-yl)-8-fluoro-2-(1,2,3,5,6,7-hexahydropyrrolizin-8-ylmethoxy)pyrido[4,3-d]pyrimidin-7-yl]naphthalen-2-ol], the IC50 at KRAS WT, on KRAS G12D and at KRAS G12C was 100 to 10000 nM each time.

Regarding `O=S1(=O)CCCN(c2nc(OCC34CCCN3CCC4)nc3c(F)c(-c4cc(O)cc5ccccc45)ncc23)CC1` [Example 24, 4-[4-(1,1-dioxo-1,4-thiazepan-4-yl)-8-fluoro-2-(1,2,3,5,6,7-hexahydropyrrolizin-8-ylmethoxy)pyrido [4,3-d]pyrimidin-7-yl]naphthalen-2-ol], the values for the IC50 at KRAS WT, at KRAS G12D and at KRAS G12C were 100 to 10000 nM, 100 to 10000 nM and 10 to 100 nM, respectively.

Consider `Oc1cc(-c2ncc3c(N4CC5COCC5C4)nc(OCC45CCCN4CCC5)nc3c2F)c2ccccc2c1` (stereo not drawn) [Example 37, 4-[4-(1,3,3a,4,6,6a-hexahydrofuro[3,4-c]pyrrol-5-yl)-8-fluoro-2-(1,2,3,5,6,7-hexahydropyrrolizin-8-ylmethoxy)pyrido [4,3-d]pyrimidin-7-yl]naphthalen-2-ol], for which the IC50 against KRAS WT and at KRAS G12D was 100 to 10000 nM throughout.

On to `CN(C)C(=O)CCNc1nc(OCC23CCCN2CCC3)nc2c(F)c(-c3cc(O)cc4ccccc34)ncc12` [Example 40, 3-[[8-fluoro-2-(1,2,3,5,6,7-hexahydropyrrolizin-8-ylmethoxy)-7-(3-hydroxy-1-naphthyl)pyrido[4,3-d]pyrimidin-4-yl]amino]-N,N-dimethyl-propanamide], for which the IC50 against KRAS WT and on KRAS G12D was 100 to 10000 nM each time.

As for `CC1COCCCN1c1nc(OCC23CCCN2CCC3)nc2c(F)c(-c3cc(O)cc4ccccc34)ncc12` (stereo not drawn) [Example 18, 4-[8-fluoro-2-(1,2,3,5,6,7-hexahydropyrrolizin-8-ylmethoxy)-4-(3-methyl-1,4-oxazepan-4-yl)pyrido[4,3-d]pyrimidin-7-yl]naphthalen-2-ol], the IC50 at KRAS WT, at KRAS G12D and on KRAS G12C was 10 to 100 nM throughout.
